In the supplement of paper PMC9663587:

How the values were obtained:
Flavopiridol [1] = compound: T1, CN1CC[C@H](c2c(O)cc(O)c3c(=O)cc(-c4ccccc4Cl)oc23)[C@H](O)C1 [Flavopiridol]; experiment: GR value, 72 h; higher = faster growth (1 = untreated, <0 = killing);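 further: breast cancer and non-malignant breast epithelial lines, nine half-log doses, viable cells counted by Hoechst and LIVE/DEAD dye imaging versus time-zero plates and DMSO controls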
Neratinib/HKI272 [2] = compound: T2, CCOc1cc2ncc(C#N)c(Nc3ccc(OCc4ccccn4)c(Cl)c3)c2cc1NC(=O)/C=C/CN(C)C [Neratinib/HKI272]; experiment: as above
[3] = compound: CCc1cnn2c(NCc3ccc[n+]([O-])c3)cc(N3CCCC[C@H]3CCO)nc12; experiment: increase in dead-cell fraction, 72 h; higher = more death;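 further: breast cancer cell lines in 384-well plates, stained with Hoechst plus LIVE/DEAD far red dye and imaged, cells above an LDR intensity threshold counted dead, Hoechst-negative corpses included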
[4] = compound: CC(=O)c1c(C)c2cnc(Nc3ccc(N4CCNCC4)cn3)nc2n(C2CCCC2)c1=O; experiment: as above
[5] = compound: CCN1CCN(Cc2ccc(Nc3ncc(F)c(-c4cc(F)c5nc(C)n(C(C)C)c5c4)n3)nc2)CC1; experiment: as above
Flavopiridol [6] = compound: T1, Flavopiridol; experiment: as above
YKL-5-124 = compound: C=CC(=O)Nc1ccc(C(=O)Nc2[nH]nc3c2CN(C(=O)N[C@H](CN(C)C)c2ccccc2)C3(C)C)cc1 [YKL-5-124]; experiment: as above
LEE011/Ribociclib = compound: CN(C)C(=O)c1cc2cnc(Nc3ccc(N4CCNCC4)cn3)nc2n1C1CCCC1 [LEE011/Ribociclib]; experiment: as above
Neratinib/HKI272 [7] = compound: T2, Neratinib/HKI272; experiment: as above
THZ531 = compound: CN(C)C/C=C/C(=O)Nc1ccc(C(=O)N2CCC[C@@H](Nc3ncc(Cl)c(-c4c[nH]c5ccccc45)n3)C2)cc1 [THZ531]; experiment: as above
THZ1 = compound: CN(C)C/C=C/C(=O)Nc1ccc(C(=O)Nc2cccc(Nc3ncc(Cl)c(-c4c[nH]c5ccccc45)n3)c2)cc1 [THZ1]; experiment: as above
BSJ-03-123 = compound: CC(=O)c1c(C)c2cnc(Nc3ccc(N4CCN(CCOCCOCCOCCNC(=O)COc5cccc6c5C(=O)N(C5CCC(=O)NC5=O)C6=O)CC4)cn3)nc2n(C2CCCC2)c1=O [BSJ-03-123]; experiment: as above

Cell Line: BT20
- GR value (Flavopiridol [1]; 0.0001 µM): 0.987 GR
- GR value (Flavopiridol [1]; 0.0003162 µM): 0.946 GR
- GR value (Flavopiridol [1]; 0.001 µM): 0.999 GR
- GR value (Flavopiridol [1]; 0.003162 µM): 0.931 GR
- GR value (Flavopiridol [1]; 0.01 µM): 0.993 GR
- GR value (Flavopiridol [1]; 0.03162 µM): 0.835 GR
- GR value (Flavopiridol [1]; 0.1 µM): 0.593 GR
- GR value (Flavopiridol [1]; 0.3162 µM): -0.0024 GR
- GR value (Flavopiridol [1]; 1 µM): -0.639 GR
- GR value (Neratinib/HKI272 [2]; 0.0003162 µM): 1.04 GR
- GR value (Neratinib/HKI272 [2]; 0.001 µM): 1.03 GR
- GR value (Neratinib/HKI272 [2]; 0.003162 µM): 1.07 GR
- GR value (Neratinib/HKI272 [2]; 0.01 µM): 0.976 GR
- GR value (Neratinib/HKI272 [2]; 0.03162 µM): 0.918 GR
- GR value (Neratinib/HKI272 [2]; 0.1 µM): 0.86 GR
- GR value (Neratinib/HKI272 [2]; 0.3162 µM): 0.693 GR
- GR value (Neratinib/HKI272 [2]; 1 µM): 0.607 GR
- GR value (Neratinib/HKI272 [2]; 3.162 µM): 0.295 GR
- increase in dead-cell fraction ([3]; 0.0001 µM): 0.0075
- increase in dead-cell fraction ([3]; 0.0003162 µM): -0.0076
- increase in dead-cell fraction ([3]; 0.001 µM): -0.0014
- increase in dead-cell fraction ([3]; 0.003162 µM): -0.0106
- increase in dead-cell fraction ([3]; 0.01 µM): 0.0127
- increase in dead-cell fraction ([3]; 0.03162 µM): 0.456
- increase in dead-cell fraction ([3]; 0.1 µM): 0.789
- increase in dead-cell fraction ([3]; 0.3162 µM): 0.803
- increase in dead-cell fraction ([3]; 1 µM): 0.827
- increase in dead-cell fraction ([4]; 0.0003162 µM): -0.0052
- increase in dead-cell fraction ([4]; 0.001 µM): -0.006
- increase in dead-cell fraction ([4]; 0.003162 µM): 0.0023
- increase in dead-cell fraction ([4]; 0.01 µM): 0.0093
- increase in dead-cell fraction ([4]; 0.03162 µM): 0.0193
- increase in dead-cell fraction ([4]; 0.1 µM): 0.0353
- increase in dead-cell fraction ([4]; 0.3162 µM): 0.0479
- increase in dead-cell fraction ([4]; 1 µM): 0.0439
- increase in dead-cell fraction ([4]; 3.162 µM): 0.0468
- increase in dead-cell fraction ([5]; 0.001 µM): -0.0036
- increase in dead-cell fraction ([5]; 0.003162 µM): -0.0047
- increase in dead-cell fraction ([5]; 0.01 µM): -0.0009
- increase in dead-cell fraction ([5]; 0.03162 µM): -0.0044
- increase in dead-cell fraction ([5]; 0.1 µM): 0.0079
- increase in dead-cell fraction ([5]; 0.3162 µM): 0.0034
- increase in dead-cell fraction ([5]; 1 µM): 0.0076
- increase in dead-cell fraction ([5]; 3.162 µM): 0.0117
- increase in dead-cell fraction ([5]; 10 µM): 0.363
- increase in dead-cell fraction (Flavopiridol [6]; 0.0001 µM): 0.0067
- increase in dead-cell fraction (Flavopiridol [6]; 0.0003162 µM): 0.0031
- increase in dead-cell fraction (Flavopiridol [6]; 0.001 µM): -0.001
- increase in dead-cell fraction (Flavopiridol [6]; 0.003162 µM): -0.0003
- increase in dead-cell fraction (Flavopiridol [6]; 0.01 µM): 0.0003
- increase in dead-cell fraction (Flavopiridol [6]; 0.03162 µM): 0.0115
- increase in dead-cell fraction (Flavopiridol [6]; 0.1 µM): 0.0027
- increase in dead-cell fraction (Flavopiridol [6]; 0.3162 µM): 0.0458
- increase in dead-cell fraction (Flavopiridol [6]; 1 µM): 0.637
- increase in dead-cell fraction (YKL-5-124; 0.001 µM): 0.0021
- increase in dead-cell fraction (YKL-5-124; 0.003162 µM): 0.0037
- increase in dead-cell fraction (YKL-5-124; 0.01 µM): 0.0071
- increase in dead-cell fraction (YKL-5-124; 0.03162 µM): 0.0095
- increase in dead-cell fraction (YKL-5-124; 0.1 µM): 0.0196
- increase in dead-cell fraction (YKL-5-124; 0.3162 µM): 0.01
- increase in dead-cell fraction (YKL-5-124; 1 µM): 0.0231
- increase in dead-cell fraction (YKL-5-124; 3.162 µM): 0.0292
- increase in dead-cell fraction (YKL-5-124; 10 µM): 0.0824
- increase in dead-cell fraction (LEE011/Ribociclib; 0.001 µM): 0.002
- increase in dead-cell fraction (LEE011/Ribociclib; 0.003162 µM): 0.0029
- increase in dead-cell fraction (LEE011/Ribociclib; 0.01 µM): 0.0024
- increase in dead-cell fraction (LEE011/Ribociclib; 0.03162 µM): 0.0037
- increase in dead-cell fraction (LEE011/Ribociclib; 0.1 µM): 0.0051
- increase in dead-cell fraction (LEE011/Ribociclib; 0.3162 µM): 0.0057
- increase in dead-cell fraction (LEE011/Ribociclib; 1 µM): 0.0086
- increase in dead-cell fraction (LEE011/Ribociclib; 3.162 µM): 0.0145
- increase in dead-cell fraction (LEE011/Ribociclib; 10 µM): 0.0266
- increase in dead-cell fraction (Neratinib/HKI272 [7]; 0.0003162 µM): -0.0021
- increase in dead-cell fraction (Neratinib/HKI272 [7]; 0.001 µM): -0.0068
- increase in dead-cell fraction (Neratinib/HKI272 [7]; 0.003162 µM): 0.001
- increase in dead-cell fraction (Neratinib/HKI272 [7]; 0.01 µM): 0.004
- increase in dead-cell fraction (Neratinib/HKI272 [7]; 0.03162 µM): 0.0258
- increase in dead-cell fraction (Neratinib/HKI272 [7]; 0.1 µM): 0.0444
- increase in dead-cell fraction (Neratinib/HKI272 [7]; 0.3162 µM): 0.0552
- increase in dead-cell fraction (Neratinib/HKI272 [7]; 1 µM): 0.0626
- increase in dead-cell fraction (Neratinib/HKI272 [7]; 3.162 µM): 0.169
- increase in dead-cell fraction (THZ531; 0.0001 µM): -0.0017
- increase in dead-cell fraction (THZ531; 0.0003162 µM): 0.0012
- increase in dead-cell fraction (THZ531; 0.001 µM): -0.0051
- increase in dead-cell fraction (THZ531; 0.003162 µM): 0.0009
- increase in dead-cell fraction (THZ531; 0.01 µM): -0.0031
- increase in dead-cell fraction (THZ531; 0.03162 µM): -0.0002
- increase in dead-cell fraction (THZ531; 0.1 µM): 0.003
- increase in dead-cell fraction (THZ531; 0.3162 µM): 0.0032
- increase in dead-cell fraction (THZ531; 1 µM): 0.0097
- increase in dead-cell fraction (THZ1; 0.0001 µM): 0.0002
- increase in dead-cell fraction (THZ1; 0.0003162 µM): 0.0003
- increase in dead-cell fraction (THZ1; 0.001 µM): -0.0025
- increase in dead-cell fraction (THZ1; 0.003162 µM): 0.0002
- increase in dead-cell fraction (THZ1; 0.01 µM): -0.0011
- increase in dead-cell fraction (THZ1; 0.03162 µM): -0.0033
- increase in dead-cell fraction (THZ1; 0.1 µM): -0.0037
- increase in dead-cell fraction (THZ1; 0.3162 µM): -0.001
- increase in dead-cell fraction (THZ1; 1 µM): 0.212
- increase in dead-cell fraction (BSJ-03-123; 0.001 µM): -0.0015
- increase in dead-cell fraction (BSJ-03-123; 0.003162 µM): 0.0071
- increase in dead-cell fraction (BSJ-03-123; 0.01 µM): 0.0034
- increase in dead-cell fraction (BSJ-03-123; 0.03162 µM): 0.0088
- increase in dead-cell fraction (BSJ-03-123; 0.1 µM): 0.0041
- increase in dead-cell fraction (BSJ-03-123; 0.3162 µM): 0.0071
- increase in dead-cell fraction (BSJ-03-123; 1 µM): 0.0076
- increase in dead-cell fraction (BSJ-03-123; 3.162 µM): 0.008
- increase in dead-cell fraction (BSJ-03-123; 10 µM): 0.0323
